Data as given in article PMC12453121, “The combined effects of tick defensin persulcatusin with conventional antibiotics and antimicrobial proteins/peptides against Staphylococcus aureus” (Microbiology, 2025).
“And” between values parts separate entries of the source, which are not always exact repeats. Identical values can stand only once. Like-named read-outs stand apart in the source and are kept apart here. Where a SMILES comes first, the peptide text is derived from it. Bridges are numbered along the chain shown (N, C = ends). Where no end group is shown, it is not given here. [ ]: non-standard residue; d: D form. The star is where a group is joined. Ileψ(thiazoline)Cys = CC[C@H](C)[C@H](N)C1=N[C@H](C(=O)*)CS1; dOrn = NCCC[C@@H](N)C(=O)O

Test system: S. aureus ATCC 29213
Details: for combined effect with IP (interpretation of FICI): named agent combined with IP, checkerboard, S. aureus ATCC 29213
Method: A checkerboard assay was performed to evaluate the combined effect of IP and conventional antibiotics using the broth microdilution method [3031] with a final inoculum concentration of 5×10^5 c.f.u. ml^−1. Bacterial cells cultured in MHB at 30 °C were suspended in MHB or cation-adjusted MHB (caMHB) for daptomycin treatment. Bacterial suspensions were dispensed into 96-well round polypropylene plates (Watson Bio Lab, Tokyo, Japan) at an inoculum concentration of 5.0×10^5 c.f.u. ml^−1. […] After incubation at 30 °C, the OD of each well was measured using a microplate reader (MTP-310; Corona Electric Co., Ltd., Ibaraki, Japan) at 660 nm (OD660). […] The fractional inhibitory concentration (FIC) was calculated as the MIC of drug A in combination with drug B divided by drug A alone. The FIC index (FICI) was calculated as the sum of each FIC, and the lowest FICI for each combination was interpreted as follows: FICI of <0.5 was defined as synergy, FICI of ≥0.5 but <1 was defined as partial synergy, FICI of ≥1 but <4 was defined as an additive effect or irrelevant and FICI of ≥4 was defined as antagonistic.

[1] = named agent combined with IP (0.25–16 µg/ml), checkerboard broth microdilution in MHB (caMHB for daptomycin), 5×10^5 c.f.u./ml, 30 °C, no growth = OD660 <0.05, lowest FICI

Compound	FICI (fractional inhibitory concentration index) [1]	combined effect with IP (interpretation of FICI)	FICI (fractional inhibitory concentration index)	MIC in the presence of sublethal concentrations of IP compared with absence of IP
CC[C@H](C)[C@H](NC(=O)[C@H](CCCCN)NC(=O)[C@H](CCC(=O)O)NC(=O)[C@H](CCCCN)NC(=O)[C@H](CO)NC(=O)[C@H](CCCCN)NC(=O)[C@H](CCCNC(=N)N)NC(=O)[C@H](Cc1ccccc1)NC(=O)[C@H](Cc1ccccc1)NC(=O)[C@H](CC(=O)O)NC(=O)CNC(=O)[C@H](CC(C)C)NC(=O)[C@@H](N)CC(C)C)C(=O)NCC(=O)N[C@@H](CCCCN)C(=O)N[C@@H](CCC(=O)O)C(=O)N[C@@H](Cc1ccccc1)C(=O)N[C@@H](CCCCN)C(=O)N[C@@H](CCCNC(=N)N)C(=O)N[C@H](C(=O)N[C@H](C(=O)N[C@@H](CCC(N)=O)C(=O)N[C@@H](CCCNC(=N)N)C(=O)N[C@H](C(=O)N[C@@H](CCCCN)C(=O)N[C@@H](CC(=O)O)C(=O)N[C@@H](Cc1ccccc1)C(=O)N[C@@H](CC(C)C)C(=O)N[C@@H](CCCNC(=N)N)C(=O)N[C@@H](CC(N)=O)C(=O)N[C@@H](CC(C)C)C(=O)N[C@H](C(=O)N1CCC[C@H]1C(=O)N[C@@H](CCCNC(=N)N)C(=O)N[C@H](C(=O)N[C@@H](CCC(=O)O)C(=O)N[C@@H](CO)C(=O)O)[C@@H](C)O)C(C)C)[C@@H](C)CC)C(C)C)[C@@H](C)CC [LL-37]	0.25	synergistic		
NC[C@H]1O[C@H](O[C@H]2[C@H](O)[C@@H](O[C@H]3O[C@H](CO)[C@@H](O)[C@H](N)[C@H]3O)[C@H](N)C[C@@H]2N)[C@H](O)[C@@H](O)[C@@H]1O [kanamycin, Kanamycin]	2.0	additive or irrelevant		
Lysostaphin	0.75	Partial synergistic		
Nisin (ITSISLCTPGCKTGALMGCNMKTATCHCSIHVSK; also: lantibiotic: lanthionine rings and dehydro residues, not placed; UniProt P13068 24-57, looked up)		Partial synergistic	0.63	higher
Gentamycin	1.0	additive or irrelevant		
Cc1nnc(SCC2=C(C(=O)O)N3C(=O)[C@@H](NC(=O)Cn4cnnn4)[C@H]3SC2)s1 [cefazolin, Cefazolin]	0.75	Partial synergistic		
CC[C@H](C)[C@H](N)C1=N[C@H](C(=O)N[C@@H](CC(C)C)C(=O)N[C@H](CCC(=O)O)C(=O)N[C@H](C(=O)N[C@H]2CCCCNC(=O)[C@H](CC(N)=O)NC(=O)[C@@H](CC(=O)O)NC(=O)[C@H](Cc3cnc[nH]3)NC(=O)[C@@H](Cc3ccccc3)NC(=O)[C@H]([C@@H](C)CC)NC(=O)[C@@H](CCCN)NC2=O)[C@@H](C)CC)CS1 [bacitracin, Bacitracin] ({Ileψ(thiazoline)Cys}-L[dE]IK[dOrn]I[dF]H[dD]N; lactam 4-C (inferred); N-terminus assumed)	0.50	Partial synergistic		
O=C(N[C@H](CO)[C@H](O)c1ccc([N+](=O)[O-])cc1)C(Cl)Cl [chloramphenicol, Chloramphenicol]	2.0	additive or irrelevant		
O=C(O)c1cn(C2CC2)c2cc(N3CCNCC3)c(F)cc2c1=O [ciprofloxacin, Ciprofloxacin]		Partial synergistic		
CC1(C)S[C@@H]2[C@H](NC(=O)[C@H](N)c3ccccc3)C(=O)N2[C@H]1C(=O)O [ampicillin, Ampicillin]	0.375 and 0.38	synergistic		
